{"source": "patent US12492189B2", "about": "“Solid forms of an HIV capsid inhibitor” (Gilead Sciences, Inc., priority 2017, dated 2025)", "key": {"HIV-IIIb": {"system": "HIV-IIIb", "experiment": "Test A: Antiviral Assay in MT4 Cells", "format": "cell-based, HIV-1", "protocol": "1 mL Aliquots of MT4 cells were pre-infected for 3 hours at 37° C. with 25 μL of cell growth medium (mock-infected) or a fresh 1:250 dilution of an HIV-IIIb concentrated ABI stock (0.004 m.o.i.). Infected and uninfected cells were diluted in cell growth media and 35 μL (2000 cells) was added to each well of the assay plates.\nAssay plates were then maintained in a humidified, 5% CO2 incubator at 37° C. After 5 days of incubation, 25 μL of 2× concentrated CellTiter-Glo™ Reagent (catalog #G7573, Promega Biosciences, Inc., Madison, WI) was added to each well of the assay plate. Cell lysis was carried out by incubating at room temperature for 10 minutes and then chemiluminescence was read using an Envision plate reader (PerkinElmer)."}, "[1]": {"experiment": "Test C: Pharmacokinetic analysis following intravenous administration to Sprague-Dawley rats", "format": "in vivo", "description": "(§2) Pharmacokinetic Analysis Following Intravenous Administration to Sprague-Dawley Rats and Beagle Dogs and Cynomolgous Monkeys\nAll IV formulations were in solution.\n(§3) Each rat IV dosing group consisted of 3 male SD rats. […] The animals were fasted overnight prior to dose administration and up to 4 hr after dosing. Each dog IV dosing group consisted of 3 male, naïve beagle dogs. At dosing, the animals weighed ˜10-12 kg. The animals were fasted overnight prior to dose administration and up to 2 hr after dosing.\n(§4) For the IV infusion group, the test compound was administered by intravenous infusion over 30 minutes. The rate of infusion was adjusted according to the body weight of each animal to deliver a dose of 1 mg/kg at 2 mL/kg.\n(§5) Serial venous blood samples (approximately 0.4 mL each for rat and 1.0 mL for dog) were taken at specified time points after dosing from each animal. The blood samples were collected into Vacutainer™ tubes (Becton-Disckinson Corp, New Jersey, USA) containing EDTA as the anti-coagulant and were immediately placed on wet ice pending centrifugation for plasma. Centrifugation began within 1 hour of collection. All samples were placed into 96-well tubes and maintained on dry ice prior to storage at approximately −70° C.\n(§6) An LC/MS/MS method was used to measure the concentration of test compounds in plasma.\n(§7) Non-compartmental pharmacokinetic analysis was performed on the plasma concentration-time data."}, "[2]": {"experiment": "Test C: Pharmacokinetic analysis following intravenous administration to beagle dogs", "format": "in vivo", "description": "as §2\nAll IV formulations were in solution.\nas §3, §4, §5, §6, §7"}, "Human Liver Hepatocytes": {"system": "Human Liver Hepatocytes", "experiment": "Test D: Metabolic Stability in Cultured Human Liver Hepatocytes", "format": "in vitro ADME", "protocol": "Test D. Metabolic Stability in Cultured Human Liver Hepatocytes\nThe final hepatocyte concentration was 1 million cells/mL. The hepatocyte/compound reaction mixture was dissolved in InVitroGRO™ KHB buffer (catalog #Z99074, BioreclamationIVT, Inc., Baltimore, MD) at pH 7.4. The incubations were performed in duplicate. A cell free control and a positive control were included in the incubations. The incubations were carried out with gentle shaking in a 37° C. incubator under a humid atmosphere of 95% air/5% CO2 (v/v). Aliquots (100 mL) were removed after 0, 1, 3, and 6 hours and added to 200 mL quenching solution that comprised 0.1% (v/v) TFA in 5% water/95% acetonitrile (v/v). The samples were placed on a shaker for 10 min, followed by centrifugation at 3000 g for 30 min. The samples of the supernatant were analyzed on a Dionex HPLC/PerkinElmer Flow Scintillation Analyzer as described below.\nThe column was a Phenomenex Synergi fusion RP (150×4.6 mm, 4 mm) maintained at 32 degrees Celsius. Mobile Phase A consisted of 0.1% (v/v) TFA in 99% water/1% acetonitrile (v/v). Mobile Phase B consisted of 0.1% (v/v) TFA in 5% water/95% acetonitrile (v/v). The flow rate was 1 mL/min using a sample injection volume of 100 mL.\nMetabolic stability was determined by measuring the change in relative abundance of metabolites and parent over time and calculating from it the rate of disappearance of the parent compound. The stability data was utilized to calculate predicted human hepatic clearance values according to methods known in the art."}, "[3]": {"experiment": "Pharmacokinetic profile after subcutaneous dosing of formulations in dogs (Formulation Examples A-D)", "format": "in vivo", "conditions": "solution in 10% ethanol, 13% water, 6 mg/kg", "method": "The suspension was administered to dogs subcutaneously at a dose of 6 mg/kg and the pharmacokinetic (PK) profile was determined.\nThe solution was administered to dogs subcutaneously at a dose of 6 mg/kg and the pharmacokinetic (PK) profile was determined.\nSubjects were orally dosed with this formulation at 6 mg/kg. […] The solution was administered to dogs subcutaneously at a dose of 6 mg/kg and the pharmacokinetic (PK) profile was determined."}, "pKa of Compound 1": {"experiment": "pKa of Compound 1", "format": "physicochemical", "excerpt": "(§1) In solution, the two atropisomers coexist in the ratio of about 1:5 to 1:8 (Isomer A:Isomer B), depending on temperatures and pH."}, "[4]": {"experiment": "Atropisomer equilibrium and interconversion in solution", "format": "physicochemical", "excerpt": "as §1"}}, "data": [{"compound": "CC(C)(C#Cc1ccc(-c2ccc(Cl)c3c(NS(C)(=O)=O)nn(CC(F)(F)F)c23)c([C@H](Cc2cc(F)cc(F)c2)NC(=O)Cn2nc(C(F)(F)F)c3c2C(F)(F)[C@@H]2C[C@H]32)n1)S(C)(=O)=O", "note": "[Compound 1, N—((S)-1-(3-(4-Chloro-3-(methylsulfonamido)-1-(2,2,2-trifluoroethyl)-1H-indazol-7-yl)-6-(3-methyl-3-(methylsulfonyl)but-1-yn-1-yl)pyridin-2-yl)-2-(3,5-difluorophenyl)ethyl)-2-((3bS,4aR)-5,5-difluoro-3-(trifluoromethyl)-3b,4,4a,5-tetrahydro-1H-cyclopropa[3,4]cyclopenta[1,2-c]pyrazol-1-yl)acetamide]", "values": [{"measurement": "times more potent in HIV antiviral assay", "setting": "HIV-IIIb; relative to compound A", "result": "about 9 times"}, {"measurement": "times more potent in HIV antiviral assay", "setting": "HIV-IIIb; relative to compound B", "result": "about 16 times"}, {"measurement": "times longer in vivo terminal half-life in rat", "setting": "[1]; relative to compound A", "result": "about 14 times"}, {"measurement": "times lower in vivo clearance in rat", "setting": "[1]; relative to compound A", "result": "about 10 times"}, {"measurement": "times longer in vivo terminal half-life in rat", "setting": "[1]; relative to compound B", "result": "about 9 times"}, {"measurement": "times lower in vivo clearance in rat", "setting": "[1]; relative to compound B", "result": "about 8.6 times"}, {"measurement": "times longer in vivo terminal half-life in dog", "setting": "[2]; relative to compound A", "result": "about 5 times"}, {"measurement": "times lower in vivo clearance in dog", "setting": "[2]; relative to compound A", "result": "about 3 times"}, {"measurement": "times longer in vivo terminal half-life in dog", "setting": "[2]; relative to compound B", "result": "about 4 times"}, {"measurement": "times lower in vivo clearance in dog", "setting": "[2]; relative to compound B", "result": "about 4 times"}, {"measurement": "Predicted Human Hepatic Clearance", "setting": "Human Liver Hepatocytes; calculated from stability in pooled cryopreserved human hepatocytes, […], up to 6 hours", "result": 0.17, "unit": "mL/min/kg"}, {"measurement": "times more stable in human hepatocytes (lower predicted hepatic clearance)", "setting": "Human Liver Hepatocytes; relative to compound A", "result": "about 9 times"}, {"measurement": "times more stable in human hepatocytes (lower predicted hepatic clearance)", "setting": "Human Liver Hepatocytes; relative to compound B", "result": "about 4 times"}, {"measurement": "plasma concentration of Compound 1 at day 28", "setting": "[3]; 77% PEG 200 (200 mg/mL) with 1.2 molar equivalent NaOH (in situ sodium salt), FIG. 29", "result": "measurable"}, {"measurement": "plasma concentration of Compound 1 at day 28", "setting": "[3]; 77% glycofurol (200 mg/mL) with 1.2 molar equivalent NaOH (in situ sodium salt), FIG. 30", "result": "measurable"}, {"measurement": "pKa", "setting": "pKa of Compound 1; weak acid, at sulfonamide", "result": 6.7}, {"measurement": "pKa", "setting": "pKa of Compound 1; weak base, at pyridine", "result": "< 1"}, {"measurement": "half-life", "setting": "[4]; in solution at 37° C., read-out: t½ of re-equilibration of separated atropisomers", "result": "1 to 2", "unit": "h"}, {"measurement": "rotational energy barrier", "setting": "[4]; rotation along one of the C—C bonds (atropisomers)", "result": "about 24 kcal/mol"}]}, {"compound": "Cn1nc(NS(C)(=O)=O)c2c(Cl)ccc(-c3ccc(C#CC(C)(C)O)nc3[C@H](Cc3cc(F)cc(F)c3)NC(=O)Cn3nc(C(F)(F)F)c4c3C(F)(F)[C@@H]3C[C@H]43)c21", "note": "[Compound B, reference compound]", "values": [{"measurement": "EC50", "setting": "HIV-IIIb; Human immunodeficiency virus 1, IIIB, MT4, 120 h", "result": 2.99, "unit": "nM"}]}]}
